Measurements reported in PubChem BioAssay AID1054 (Sanford-Burnham Center for Chemical Genomics, 2008).
“And” between values parts separate entries of the source, which are not always exact repeats. Equal values may be shown once. The source made the active and inactive calls. How the calls were made is not given here.

Molecular target: Dual specificity protein phosphatase 6 (Rattus norvegicus) (UniProt Q64346)
Experiment: redox-state modulators of MKP-3 activity, biochemical, rat enzyme, secondary assay (AID 1054)
Conditions: recombinant MKP-3 phosphatase activity

Chain of Dual specificity protein phosphatase 6 (Rattus norvegicus) (Q64346 whole entry, looked up): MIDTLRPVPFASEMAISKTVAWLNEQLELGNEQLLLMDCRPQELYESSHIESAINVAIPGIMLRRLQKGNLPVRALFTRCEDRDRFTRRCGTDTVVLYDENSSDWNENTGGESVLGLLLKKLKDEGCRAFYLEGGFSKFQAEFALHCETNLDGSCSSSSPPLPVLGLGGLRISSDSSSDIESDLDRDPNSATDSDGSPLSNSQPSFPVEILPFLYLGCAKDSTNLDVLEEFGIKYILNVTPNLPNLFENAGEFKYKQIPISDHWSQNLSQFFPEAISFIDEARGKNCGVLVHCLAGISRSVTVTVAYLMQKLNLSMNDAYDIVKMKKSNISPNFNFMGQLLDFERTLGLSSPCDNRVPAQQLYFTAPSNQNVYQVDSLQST

Row | SMILES | IC50
1 | O=C(O)C1Nc2cc(Cl)cc(Cl)c2C2C=CCC12 (stereo unspecified) | > 100 µM (inactive)
2 | O=C(O)c1ccc([N+](=O)[O-])c2c1NC(C(=O)O)C1CC=CC21 (stereo unspecified) | > 100 µM (inactive)
3 | C[C@@H](C(N)=O)n1c(=O)n(Cc2ccccc2)c(=O)n(-c2ccccc2)c1=O | > 100 µM (inactive)
4 | CCCCCCCCCCCCCCCCCCC#CCCCCCCCCCCCC(=O)O | > 100 µM (inactive)
5 | O=C(O)C1Nc2c(O)cccc2C2C=CCC12 (stereo unspecified) | 10.5 µM and 14.6 µM
6 | Cc1ccc2c(c1)NC(C(=O)O)NS2(=O)=O (stereo unspecified) | 56.9 µM
7 | Cc1cc([N+](=O)[O-])cc2c1NC(C(=O)O)C1CC=CC21 (stereo unspecified) | > 100 µM (inactive)
8 | O=c1/c(=C/c2ccc(-c3ccccc3[N+](=O)[O-])o2)sc2nc3cc(Br)cnc3n12 | 29.8 µM
9 | CCOC(=O)C1Nc2c(O)cc(C)cc2C2C=CCC12 (stereo unspecified) | > 100 µM (inactive)
10 | O=C(O)C1Nc2ccccc2C2C=CCC12 (stereo unspecified) | 25.2 µM
11 | COc1cc(C(=S)NC2CCCC2)ccc1O | 3.77 µM
12 | CCOc1cc2c(c([N+](=O)[O-])c1)NC(C(=O)O)C1CC=CC21 (stereo unspecified) | > 100 µM (inactive)
13 | CCn1c(=O)n(CC)c(=O)n([C@@H](Cc2ccccc2)C(=O)O)c1=O | > 100 µM (inactive)
14 | CCOC(=O)C1Nc2c(O)cccc2C2C=CCC12 (stereo unspecified) | > 100 µM (inactive)
15 | CCOC(=O)C1Nc2c(O)ccc(C)c2C2C=CCC12 (stereo unspecified) | > 100 µM (inactive)
16 | CC1=C(C(=O)OC(C)C)C(c2ccc(Cl)cc2)n2c(sc(=Cc3ccc(OCC(=O)O)cc3)c2=O)=N1 (stereo unspecified) | 10.1 µM
17 | CCOC(=O)C1=C(c2ccccc2)N=c2sc(=Cc3cc(OC)c(OC)c(OC)c3)c(=O)n2C1c1cccs1 (stereo unspecified) | > 50 µM (inactive)
18 | CCOC(=O)C1=C(C)N=c2s/c(=C/c3cc(Cl)c(OCC(=O)O)c(OC)c3)c(=O)n2C1c1ccccc1Cl (stereo unspecified) | 9.75 µM
19 | Cc1cc(C)c2nc3s/c(=C\c4ccc(-c5ccccc5C(=O)O)o4)c(=O)n3c2c1 | 11.7 µM
20 | CCCCCCCCCCCCCCCCCCC=CCCCCCC(=O)O | > 100 µM (inactive)
21 | O=C(Cc1cccs1)Nc1ccon1 | > 100 µM (inactive)
22 | O=C(O)C1Nc2c(F)cccc2C2C=CCC12 (stereo unspecified) | 17.2 µM
23 | CCn1c(=O)n(Cc2ccccc2C)c(=O)n([C@@H](Cc2ccccc2)C(=O)O)c1=O | > 100 µM (inactive)

Row | SMILES | IC50
24 | COc1cc(C(=S)NC(C)(C)C)ccc1O | > 100 µM (inactive)
25 | O=C(O)c1ccc(-c2ccc(/C=c3\sc4nc5ccccc5n4c3=O)o2)cc1 | 6.59 µM
26 | C#CCCCCCCCCCCCCCCCCCC | > 100 µM (inactive)
27 | CCCCCCCCCCCCCCCCCCC#CCCCCCCCC(=O)O | > 100 µM (inactive)
28 | O=C(O)c1ccccc1-c1ccc(/C=c2\sc3nc4cc(Br)cnc4n3c2=O)o1 | 3.11 µM
29 | Cc1ccc(C)c2c1NC(C(=O)O)C1CC=CC21 (stereo unspecified) | > 100 µM (inactive)
30 | O=c1/c(=C/c2ccccc2Cl)sc2nc3cc(Br)cnc3n12 | 2.5 µM
31 | CSc1nnc(-c2ccco2)c(-c2ccco2)n1 | 99.7 µM
32 | CC(=O)Nc1ccc2c(c1)C1C=CCC1C(C(=O)O)N2 (stereo unspecified) | > 100 µM (inactive)
33 | COc1ccc(-n2c(=O)nc(NCCc3cccc(Cl)c3)[nH]c2=O)cc1 | > 100 µM (inactive)
34 | c1ccc(CSc2nnc(-c3ccco3)c(-c3ccco3)n2)cc1 | 24.2 µM
35 | Cn1c(=O)n(CC(N)=O)c(=O)n(-c2ccccc2)c1=O | > 100 µM (inactive)
36 | CC(C)COC(=O)c1ccc2c(c1)C1C=CCC1C(C(=O)O)N2 (stereo unspecified) | 55.8 µM
37 | Cc1ccc(C)n1C(Cc1ccccc1)C(=O)O (stereo unspecified) | > 100 µM (inactive)
38 | O=C1CC(=O)N(Cc2ccco2)C(=O)N1 | > 100 µM (inactive)
39 | O=C(Oc1ccc2c(c1)C1C=CCC1C(C(=O)O)N2)c1ccc(Cl)cc1Cl (stereo unspecified) | 15.6 µM
40 | COc1cc(C(=S)NCc2ccc(C)cc2C)ccc1O | 2.12 µM
41 | CCCn1c(=O)nc(NCCc2ccccc2)[nH]c1=O | > 100 µM (inactive)
42 | O=C(O)C1Nc2ccc(Br)cc2C2C=CCC12 (stereo unspecified) | 12.3 µM
43 | O=C(Oc1ccc(-c2ccccc2)cc1)c1cccc2c1NC(C(=O)O)C1CC=CC21 (stereo unspecified) | 3.5 µM
44 | CCOC(=O)c1ccccc1OC(=O)c1ccc2c(c1)C1C=CCC1C(C(=O)O)N2 (stereo unspecified) | 6.01 µM
45 | COc1cc(C(=S)NCc2ccccc2)ccc1O | 4.46 µM
46 | COc1cc(C(=S)NC2CCCCC2)ccc1O | 6.35 µM

Row | SMILES | IC50
47 | CCCCCCn1c(=O)nc(NCc2ccccc2OC)[nH]c1=O | > 100 µM (inactive)
48 | Cc1ccccc1Cn1c(=O)n(-c2ccccc2)c(=O)n([C@H](C(=O)O)C(C)C)c1=O | > 100 µM (inactive)
49 | O=C(O)C1Nc2c(I)cccc2C2C=CCC12 (stereo unspecified) | > 100 µM (inactive)
50 | Cn1c(SCC(=O)O)nc2sc3c(c2c1=O)CCC3 | > 100 µM (inactive)
51 | Cc1ccccc1Cn1c(=O)n(-c2ccccc2)c(=O)n([C@@H](C)C(N)=O)c1=O | > 100 µM (inactive)
52 | Cn1c(=O)n(-c2ccc(Cl)cc2)c(=O)n([C@@H](Cc2ccccc2)C(N)=O)c1=O | > 100 µM (inactive)
53 | Cc1cc(C)c2c(c1)C1C=CCC1C(C(=O)O)N2 (stereo unspecified) | > 100 µM (inactive)
54 | CCOC(=O)C1=C(C)N=c2sc(=Cc3ccc(OCC(=O)O)cc3)c(=O)n2C1c1ccc(Cl)cc1 (stereo unspecified) | 16.8 µM
55 | CCN1CCN(C(=S)c2ccc(O)c(OC)c2)CC1 | > 100 µM (inactive)
56 | Cc1ccc2c(c1Cl)NC(C(=O)O)C1CC(Sc3ccccc3[N+](=O)[O-])C(Cl)C21 (stereo unspecified) | 42.6 µM
57 | O=C(Oc1ccc2ccccc2c1)c1ccc2c(c1)C1C=CCC1C(C(=O)O)N2 (stereo unspecified) | 24.7 µM
58 | Clc1cccc(Cl)c1COc1nnc(-c2cccs2)c(-c2cccs2)n1 | > 100 µM (inactive)
59 | COc1ccc(N2Cc3cccc(C(=O)O)c3C2=O)cc1 | > 100 µM (inactive)
60 | CC(C)CNc1nc(=O)n(-c2ccc(F)cc2)c(=O)[nH]1 | > 100 µM (inactive)
61 | CCn1c(SCC(=O)O)nc2sc3c(c2c1=O)CCCC3 | > 100 µM (inactive)
62 | CCCCCCCCCCCCCCCCCCC#CCCCCCCCCCCC(=O)O | > 100 µM (inactive)
63 | COCCCNc1nc(=O)n(-c2ccc(F)cc2)c(=O)[nH]1 | > 100 µM (inactive)
64 | CCCCCC#CCC#CCC#CCC#CCCCC(=O)O | 30.4 µM
65 | O=C(O)C(O)c1ccccc1 (stereo unspecified) | > 100 µM (inactive)
66 | CCOC(=O)C1=C(C)N=c2s/c(=C\c3cc(Cl)c(OCC(=O)O)c(Cl)c3)c(=O)n2C1c1cccc(OC)c1 (stereo unspecified) | 9.64 µM
67 | COc1cc(C(=S)NCc2ccc(Cl)c(C)c2)ccc1O | 10.5 µM
68 | O=C(O)C1Nc2c(Cl)cc(Cl)cc2C2C=CCC12 (stereo unspecified) | 53 µM
69 | COc1cc(C(=S)NCc2ccc(F)c(C(F)(F)F)c2)ccc1O | 1.5 µM

Row | SMILES | IC50
70 | O=C(O)C1Nc2c(cccc2C(F)(F)F)C2C=CCC12 (stereo unspecified) | 7.72 µM
71 | O=C(O)c1ccc2c(c1)C1C=CCC1C(C(=O)O)N2 (stereo unspecified) | 15.5 µM
72 | O=C(O)C1Nc2c(O)cc(Cl)c([N+](=O)[O-])c2C2C=CCC12 (stereo unspecified) | 35.4 µM
73 | O=C1c2ccccc2CC1Sc1nnc(-c2ccco2)c(-c2ccco2)n1 (stereo unspecified) | 42 µM
74 | Cc1ccc2c(c1)C1C=CCC1C(C(=O)O)N2 (stereo unspecified) | 7.92 µM
75 | CCCCCc1nnc(NC(=O)Cc2cccs2)s1 | 17.2 µM
76 | Cc1cc(O)c2c(c1)C1C=CCC1C(C(=O)O)N2 (stereo unspecified) | > 100 µM (inactive)
77 | Cc1ccc(-n2c(=O)[nH]c(=O)n([C@H](C(N)=O)C(C)C)c2=O)cc1 | > 100 µM (inactive)
78 | NC(=O)[C@H](Cc1ccccc1)n1c(=O)n(Cc2ccc(Br)cc2)c(=O)n(-c2ccccc2)c1=O | > 100 µM (inactive)
79 | O=C(O)c1ccc(N2C(=O)c3ccccc3C2=O)cc1 | > 100 µM (inactive)
80 | O=c1/c(=C/c2ccc(-c3cc(Cl)cc(Cl)c3)o2)sc2nc3cc(Br)cnc3n12 | 14.8 µM
81 | COc1ccc2c(c1)C1C=CCC1C(C(=O)O)N2 (stereo unspecified) | 32 µM
82 | COc1cc(C(=S)NCc2ccc(O)cc2)ccc1O | 16.1 µM
83 | Cc1cc(NC(=O)Cc2cccs2)no1 | 13.1 µM
84 | COc1cc(C(=S)NCc2ccc(F)c(C)c2)ccc1O | 7.53 µM
85 | O=C(O)C1Nc2c(cccc2N2CCOCC2)C2C=CCC12 (stereo unspecified) | 60.1 µM
86 | Cc1cc(NC(=O)/C=C/c2cccs2)no1 | > 100 µM (inactive)
87 | CCCCOC(=O)c1ccc2c(c1)C1C=CCC1C(C(=O)O)N2 (stereo unspecified) | 4.02 µM
88 | Cc1cc2nc3s/c(=C/c4ccc(-c5ccccc5C(=O)O)o4)c(=O)n3c2cc1C | 14.8 µM
89 | CC(C)[C@@H](C(N)=O)n1c(=O)[nH]c(=O)n(-c2ccc(Cl)cc2)c1=O | > 100 µM (inactive)
90 | O=S(=O)(O)c1ccc2cc(N=Nc3cc(S(=O)(=O)O)c4cccnc4c3O)ccc2c1 | 4.19 µM
91 | O=C(O)C1Nc2ccc([N+](=O)[O-])cc2C2C=CCC12 (stereo unspecified) | 47.5 µM
92 | NS(=O)(=O)c1ccc2c(c1)C1C=CCC1C(C(=O)O)N2 (stereo unspecified) | > 100 µM (inactive)

Row | SMILES | IC50
93 | COc1cc(C(=S)N2CCCCC2)ccc1O | 13.5 µM and 10.7 µM
94 | Cc1cc(NC(=O)CCc2ccc(C)o2)no1 | > 100 µM (inactive)
95 | Cc1ccc(CC(=O)Nc2cc(C)on2)cc1 | > 100 µM (inactive)
96 | COCCCNc1nc(=O)n(-c2ccc(C)cc2)c(=O)[nH]1 | > 100 µM (inactive)
97 | CCOC(=O)C1Nc2c(OC)cccc2C2OCCCC12 (stereo unspecified) | > 100 µM (inactive)
98 | CCn1c(=O)n(Cc2ccc(N(O)O)cc2)c(=O)n([C@@H](Cc2ccccc2)C(=O)O)c1=O | > 100 µM (inactive)
99 | O=C(O)[C@@H](O)c1ccccc1 | > 100 µM (inactive)
100 | Cc1cc(NC(=O)c2cccs2)no1 | > 100 µM (inactive)
101 | COc1cc(C(=S)N2CCC(C)CC2)ccc1O | 32.8 µM
102 | O=c1/c(=C/c2ccco2)sc2nc3cc(Br)cnc3n12 | 4.56 µM
103 | O=C(O)C1Nc2c(cccc2S(=O)(=O)c2ccccc2)C2C=CCC12 (stereo unspecified) | 58.7 µM
104 | COc1cccc2c1NC(C(=O)O)C1CC=CC21 (stereo unspecified) | 23.1 µM and 13.1 µM
105 | CCCn1c(=O)nc(NCc2ccccc2OC)[nH]c1=O | > 100 µM (inactive)
106 | Cc1cc(C)c2c(c1)NC(C(=O)O)C1CC=CC21 (stereo unspecified) | 46.1 µM
107 | Cc1ccc(O)c2c1C1C=CCC1C(C(=O)O)N2 (stereo unspecified) | 86.4 µM
108 | CCCCCCCCC#CC#CCCCC(=O)O | > 100 µM (inactive)
109 | O=C(O)C1Nc2cc(C(F)(F)F)ccc2S(=O)(=O)N1 (stereo unspecified) | > 100 µM (inactive)
110 | CCN(CC)C(=S)c1ccc(O)c(OC)c1 | 86.6 µM
111 | O=C(O)C1Nc2c(Cl)cc(Cl)c(Cl)c2C2C=CCC12 (stereo unspecified) | 12 µM
